Tests used:
Nqo1 gene = assay: Effect of inducing Nrf2 target gene (in vivo): Nqo1 gene expression in mouse kidney after oral administration; parameters: species or system C57 Black 6 mouse; conditions: for Nqo1 gene expression level: solvent group defined as 1, mean ± SD, 6 mice; for induction of the Nqo1 gene (in words): oral, derivative B at a dose of 1 mg/kg
Method: The Nqo1 gene was used as the Nrf2 target gene.
Respective suspensions of terpenoid derivative B of the present invention obtained in Example 1 and CDDO-Me were prepared using 0.5 w/v % methylcellulose solution 400 cP (Wako Pure Chemical Industries, Ltd., catalog No. 133-14255) as a solvent. Each suspension was orally administered once a day for 12 consecutive days at a dose of 1, 3, or 10 mg/kg with administration volume of 10 mL/kg to each C57 Black 6 mouse (Charles River Laboratories Japan, Inc., male, 8 weeks old at the time of receipt, 10 weeks old at the start of the experiment). On the next day of the final administration, the mouse was euthanized, and the kidney was sampled. From the sampled kidney, mRNA was collected using an extraction kit (manufactured by Qiagen N.V., RNeasy Mini Kit, catalog No. 74106). From the obtained mRNA, cDNA was prepared using a cDNA synthesis kit (manufactured by GE Healthcare Life Sciences, First-Strand cDNA Synthesis Kit). The obtained cDNA was amplified using a reagent (manufactured by Applied Biosystems, Inc., TaqMan(R) Gene Expression Master Mix (catalog No. 4369016)) and a probe, and subjected to real-time quantitative PCR (Real-time PCR HT7900 manufactured by Applied Biosystems, Inc. was used). […] Each group consisted of 6 mice and was indicated as a mean and standard deviation.

ARPE-19 cells = assay: Cytotoxicity, LDH-Cytotoxic Test in ARPE-19 cells; assay type: cell-based, human; conditions: 10 μM, approx. 16 hours, 3 wells
Method: ARPE-19 cells (human retinal pigment epithelium cell line, ATCC, catalog No. CRL-2302) were cultured (5% CO2, 37° C.). A DMEM/F12 (Life Technologies Japan Ltd., catalog No. 11330-032) mixed medium containing 10% inactivated FBS was used. The medium contained 100 units/mL (final concentration) penicillin and 100 μg/[…] (final concentration) streptomycin.
The ARPE-19 cells were seeded at 5000 cells/well in a 96-well plate. The amount of the medium was 50 μL. Approximately 3 hours later, 50 μL of a medium containing CDDO-Me or each of terpenoid derivatives A to H was added thereto, followed by culture for approximately 16 hours. Then, cytotoxicity was evaluated using LDH-Cytotoxic Test (Wako Pure Chemical Industries, Ltd., catalog No. 299-50601). The evaluation method followed the attached document. Each group consisted of 3 wells and was indicated as cytotoxicity at the concentration of 10 μM. The means thereof were 43% for CDDO-Me, 2% for terpenoid derivative A, 2% for terpenoid derivative B, 2% for terpenoid derivative C, 1% for terpenoid derivative D, 2% for terpenoid derivative E, 3% for terpenoid derivative F, 3% for terpenoid derivative G, and 1% for terpenoid derivative H. Terpenoid derivatives A to H were low in cytotoxicity as compared with CDDO-Me.

NQO1 = NQO1 assay in Hepa1c1c7 cells; assay type: cell-based, mouse; conditions: approx. 48 hours, mean of 3 wells
Method: Hepa1c1c7 cells (mouse hepatic cell line, ATCC, catalog No. CRL-2026) were cultured (5% CO2, 37° C.). A DMEM (Life Technologies Japan Ltd., catalog No. 11965-092) medium also containing 10% inactivated FBS was used. The medium contained 100 units/mL (final concentration) penicillin and 100 μg/[…] (final concentration) streptomycin. The NQO1 assay was conducted according to previous reports (Anal Biochem 1998; 169: 328-; and Methods Enzymol 2004; 382: 243-).
The Hepa1c1c7 cells were seeded at 10000 cells/well in a 96-well plate. The amount of the medium was 100 μL. Approximately 24 hours later, the medium was replaced with a medium containing CDDO-Me or each of terpenoid derivatives A to G, followed by further culture for approximately 48 hours. A lysis solution (a solution containing 2 mM EDTA and 0.8% digitonin), a reaction solution (a solution containing 0.025 M of tris-HCl, 0.067% of albumin, 0.01% of Tween-20, 2 U/mL of glucose-6-phosphate dehydrogenase, 5 μM of flavin adenine dinucleotide, 1 […], 30 μM of nicotinamide adenine dinucleotide phosphate, 0.03% of 3-(4,5-dimethyl-2-thiazolyl)-2,5-diphenyltetrazolium bromide (MTT), and 50 μM of menadione), and a stop solution (a solution containing 0.3 mM dicumarol and 5 mM potassium dihydrogen phosphate, pH 7.4) were prepared. After removal of the medium, 50 μL of the lysis solution was added thereto, and the mixture was left standing at 37° C. for 10 minutes. The reaction mixture was further shaken at room temperature for 10 minutes.
Two hundred μL of the solution was added thereto, and the mixture was left standing at room temperature for 5 minutes. Fifty μL of the stop solution was added thereto, and the absorbance at 490 nm was measured.
The test results were analyzed using Prism (GraphPad Software, Inc., Ver. 5) to calculate the CD value of the concentration at which the activity of NQO1 was increased 2-fold. Each group consisted of 3 wells and indicated as a mean of CD values.

[1] = 1 mg/kg oral once a day for 12 days
[2] = 3 mg/kg oral once a day for 12 days
[3] = 10 mg/kg oral once a day for 12 days

| SMILES | Nqo1 gene expression level (Nqo1 gene; [1]) | Nqo1 gene expression level (Nqo1 gene; [2]) | Nqo1 gene expression level (Nqo1 gene; [3]) | induction of the Nqo1 gene (in words) (Nqo1 gene) | cytotoxicity (LDH-Cytotoxic Test), mean (ARPE-19 cells) [%] | CD value (concentration at which the activity of NQO1 was increased 2-fold) (NQO1) [nM] |
| --- | --- | --- | --- | --- | --- | --- |
| COC(=O)[C@]12CCC(C)(C)C[C@H]1[C@H]1C(=O)C=C3[C@@]4(C)C=C(C#N)C(=O)C(C)(C)[C@@H]4CC[C@@]3(C)[C@]1(C)CC2 [CDDO-Me, methyl 2-cyano-3,12-dioxooleana-1,9-dien-28-oate, reference compound] | 1.0 ± 0.0 | 1.0 ± 0.1 | 1.0 ± 0.1 | not confirmed to induce the Nqo1 gene | 43 | 1.0 |
| COC(=O)[C@@]12CC[C@]3(C)[C@H](C(=O)C=C4[C@@]5(C)[C@H]6O[C@@]6(C#N)C(=O)C(C)(C)[C@@H]5CC[C@]43C)[C@@H]1CC(C)(C)[C@@H](O)C2 [terpenoid derivative B] | 1.2 ± 0.1 | 1.8 ± 0.2 | 2.3 ± 0.2 | confirmed to induce the Nqo1 gene | 2 | 0.3 |

Source: patent US10253060B2, “Terpenoid derivatives” (Daiichi Sankyo Company, Limited, priority 2013, dated 2019)
